Measurements from paper PMC5454592, “Pharmacological and Toxicological Properties of the Potent Oral γ-Secretase Modulator BPN-15606” (The Journal of Pharmacology and Experimental Therapeutics, 2017).

Tests used:
[1] = PK in mouse (i.v./po); format: in vivo; conditions: male, plasma, CD-1 mice, 5 mg/kg po vs 1 mg/kg i.v.
Method: (§1) Male CD-1 mice and male Sprague–Dawley rats were administered a single dose of BPN-15606 by i.v. or oral gavage (po) dose routes to assess oral bioavailability. Mice and rats received BPN-15606 as a single i.v. dose at 1 mg/kg (n = 5) or a single po dose at 5 mg/kg (n = 5). Blood was collected from mice and rats at 5 (i.v. only), 15, and 30 minutes, and 1, 2, 4, 8, and 12 hours postdose for processing to plasma. For mice, brains were collected from both dose groups (i.v. and po) at 1, 4, 8, and 12 hours postdose. For rats, brains were collected from those same animals at the 12-hour time point only. […]
(§2) Data were subjected to noncompartmental analysis using WinNonlin Phoenix Model 200 (for extravascular administration) or Model 201 (for i.v. bolus administration) and the sparse sampling feature; a uniform weighting factor was applied to each data set. Time to maximum plasma concentration (Tmax) and maximum plasma concentration (Cmax) values were determined directly from the data. Area under the plasma concentration–time curve to the last time point (AUClast) values were calculated using the log/linear trapezoidal (i.v. dose) or linear up/log down trapezoidal (po dose). Values were calculated using the plasma data from composite groups. […] The volume of distribution at steady state and clearance were calculated using the i.v. group data. […]

[2] = PK in rat (i.v./po); format: in vivo; conditions: male, plasma, Sprague–Dawley rats, 5 mg/kg po vs 1 mg/kg i.v.
Method: as §1, §2

[3] = test system: HReN-mGAP AD ReN cells; experiment: Three-dimensional human neural cell culture model of AD (MSD ELISA); format: cell-based; conditions: 70 nM
Method: HReN-mGAP AD ReN cell expression APP^Swedish/London and Presenilin 1^ΔE9 were previously described ([Choi et al., 2014]). The HReN-mGAP AD ReN cells were three-dimensional (3D)–differentiated for 7 weeks, as previously described ([Choi et al., 2014]). The cultures were then harvested and analyzed for the soluble (conditioned media) and insoluble Aβ40/42/38 and p-tau/tau levels, using Meso Scale Discovery electrochemiluminescence system. BPN-15606 (70 nM) and the same volume of DMSO controls were treated in the last 4 weeks. The potential toxicity of the drugs was monitored by CytoTox-ONE (lactate dehydrogenase) assay after 1 week of the treatments. At the end of the treatments, the soluble (media) and the insoluble fractions (5 M GuHCl-soluble extracts) were collected and analyzed for Aβ38, Aβ40, and Aβ42 with MSD enzyme-linked immunosorbent assay (ELISA; V-Plex 6E10 Aβ40/Aβ42/Aβ38 kit). The custom-made plates were used for detecting total tau (BT2; ThermoFisher Scientific, Sommerset, NJ) and pThr181 tau (At270; ThermoFisher Scientific, Sommerset, NJ). The insoluble fraction was dissolved in 5 M GuHCl, and pThr181 tau, total tau, Aβ40, Aβ42, and Aβ38 concentrations were determined by MSD ELISA. The levels of the control protein Tuj1 were determined by dot-blot analysis in the GuHCl lysates (data not shown).

[4] = in vivo; conditions: cynomolgus monkey
Method: The objectives of this study were to determine the MTD of BPN-15606, characterize potential toxicity, and calculate toxicokinetic parameters of BPN-15606 in adult male and female cynomolgus macaques following daily po dose administration at a near-MTD dose of BPN-15606 for 7 consecutive days. In the dose escalation phase to establish the MTD (phase A), male and female cynomolgus macaques (n = 2/sex) were administered single doses of BPN-15606 at 3, 10, 30, 100, and 300 mg/kg, with 2 to 4 days between each dose escalation (Fig. 10). […] The plasma drug concentrations at the approximate Tmax increased in a dose-dependent manner. […] Comprehensive evaluation of clinical pathology parameters (clinical chemistry, hematology), gross pathology, and histopathologic parameters was carried out at SRI International, according to their standardized protocols. Tissues examined histopathologically included the following: liver, lung, stomach, duodenum, colon, spleen, pancreas, thymus, heart, brain, and kidney.

[5] = in vivo; conditions: both sexes, cynomolgus monkey, po, repeat dose
[6] = target: γ-secretase (Homo sapiens, UniProt P49768); experiment: SHSY5Y-APP cell-based MSD Aβ triplex screening assay; set-up: endogenous in cells; host or cells: human SH-SY5Y neuroblastoma cells stably overexpressing human APP751 wild-type
Method: All Aβ assays, including the anti-Aβ immunoprecipitation/matrix-assisted laser desorption/ionization time of flight, were carried out as described previously ([Wagner et al., 2014]).

[7] = last 4 weeks of 7-week 3D culture, media

## COc1nc(-c2cc(C)c(N[C@@H](C)c3ccc(F)cc3)nn2)ccc1-n1cnc(C)c1 [BPN-15606, (S)-N-(1-(4-fluorophenyl)ethyl)-6-(6-methoxy-5-(4-methyl-1H-imidazol-1-yl)pyridin-2-yl)-4-methylpyridazin-3-amine]
[1]
  bioavailability: > 60%
[2]
  bioavailability: > 60%
[3]; [7]
  soluble Aβ38 level: increasing
  soluble Aβ40 level: dramatically decreased
  soluble Aβ42/40 ratio: dramatically decreased
  soluble Aβ42 level: dramatically decreased
[3]; 5 M GuHCl-soluble extracts
  insoluble Aβ40 level: decreased
  insoluble Aβ42 level: decreased
  insoluble pThr181 tau level: decreased
  insoluble total tau level: decreased
[4]; both sexes
  NOAEL: 30 mg/kg
[4]; both sexes, MTD after a single-dose administration
  MTD: 300 mg/kg
[4]; both
  NOEL after a single dose: 30 mg/kg
  clinical signs after single doses: limited to emesis in the 100 and 300 mg/kg groups
[4]
  clinical pathology parameters after single-dose administration: no apparent changes
[4]; po, 300 mg/kg
  clinical signs on repeat dosing: emesis, reduced appetite, and reduced stool
  gross findings at necropsy: no gross findings at necropsy
  hepatic histopathological findings: minimal sinusoidal leukocytosis in two male monkeys and moderate focal fatty infiltration in one female monkey
  renal histopathological findings: mild to moderate proximal tubular necrosis, casts, and dilation with cortical and medullary subacute inflammation
[5]
  MTD at 6 days: < 300 mg/kg/day
[6]; SHSY5Y-APP cells
  AβTotal: No change
[6]; human SHSY5Y neuroblastoma cells stably overexpressing human APP751 wild-type, read-out: Aβ42 IC50
  IC50: 7 nM
